From patent publication US6043223A, “Enhanced opening of abnormal brain tissue capillaries” (priority 1997, dated 2000)
Where a SMILES comes first, the peptide text is derived from it.

Assays:
brain tumor capillaries = conditions: intracarotid infusion; previous studies (6-9); cited from earlier work
C6 gliomas = assay: Regional permeability (Ki) by quantitative autoradiography in rats with implanted C6 gliomas; format: in vivo, rat
Description: (§1) RG2 and C6 are cell lines derived from rat gliomas induced by ethylnitrosourea (17,18). The glioma cells were kept frozen until use, then thawed and maintained in a monolayer culture in F12 medium with 10% calf serum. The rats were anesthetized with intra-peritoneal ketamine (50 mg/kg). Glial tumors were implanted into the right hemisphere by intracerebral injections of 1×10^5 glioma cells in 5 μl F12 medium (1.2% methylcellulose) by a Hamilton syringe. The coordinates used were 5 mm lateral to the bregma, and 4.5 mm deep to the dural surface.
(§2) Seven or eight days after tumor implantation, the rats were anesthetized with intra-peritoneal urethane (1 g/kg) and a polyethylene catheter was inserted retrograde through the external carotid artery to the common carotid artery bifurcation ipsilateral to the tumor. The external carotid artery and pterygopalatine artery were then ligated. Both femoral veins were cannulated for administration of drugs or tracers. One femoral artery was cannulated to monitor systemic blood pressure and the other femoral artery was cannulated to withdraw arterial blood. Body temperature was maintained at 37° C. and arterial blood gases, blood pressure, and hematocrit were monitored.
The tumor-implanted rats were grouped by tracers and by tumor types. Bradykinin (Sigma Chemical Co., St. Louis, Mo.) or PBS (control) was infused into the right carotid artery at a rate of 53.3 μl/minute (10 μg/kg/minute) for 15 minutes. […] A peristaltic withdrawal pump was used to withdraw femoral arterial blood at a constant rate of […] immediately after the injection of the tracer for the determination of serum radioactivity. […]
The frozen brains were mounted onto pedestals with M-1 embedding matrix (Lipshaw, Pittsburgh, Pa.) and 20 μm coronal sections were cut with a cryotome. […] The regional radioactivity was measured in the tumor, BST (areas within 2 mm distance from the border of the tumor), right cortex (ipsilateral cortex), left cortex (contralateral cortex), right white matter, left white matter, right basal ganglia, and left basal ganglia. Quantitative analysis of the regional radioactivity was performed using a computer (Power Macintosh 7100) and the software, Image 1.55 (NIH).
For quantitative autoradiographic examination, the regional permeability in the brain and tumor tissues were expressed by the unidirectional transfer constant, Ki value (μl/g/minute) which was determined as described in References 21, 22, 23 and 24).
For all tracers, statistical comparison of regional Ki values or blood volume between same regions with/without bradykinin or zaprinast were determined using analysis of variance (ANOVA) followed by non-parametric analysis of Mann-Whitney's U test. […]

RG2 gliomas = assay: Regional permeability (Ki) by quantitative autoradiography in rats with implanted RG2 gliomas; format: in vivo, rat; conditions: for effect on tumor permeability 20 minutes after stopping the intracarotid infusion (in words): [14C]-dextran
Description: as §1, §2
The tumor-implanted rats were grouped by tracers and by tumor types. Bradykinin (Sigma Chemical Co., St. Louis, Mo.) or PBS (control) was infused into the right carotid artery at a rate of 53.3 μl/minute (10 μg/kg/minute) for 15 minutes. In regional permeability studies, 5 minutes after the start of the intracarotid infusion, […] of [^14 C]-AIB (MW 103, Dupon-New England Nuclear Co., Boston, Mass.) or [^14 C]-Dextran (MW 70,000, Dupon-New England Nuclear Co.) was injected as an intravenous bolus. A peristaltic withdrawal pump was used to withdraw femoral arterial blood at a constant rate of […] immediately after the injection of the tracer for the determination of serum radioactivity. Fifteen minutes after the start of intracarotid infusions, the animals were killed by decapitation and the brains were rapidly removed and frozen.
Bradykinin, zaprinast or bradykinin mixed with zaprinast was infused into the right carotid artery at a rate of 53.3 μl/minute for 15 minute. The rate of infusion of bradykinin and zaprinast was 10 μg/kg/minute and 1.67 mg/kg/minute ([…]) respectively. Injection of tracer, withdrawing of arterial blood, and other protocols were in the same manner as described above.
The duration of the effect of the intracarotid bradykinin with or without zaprinast infusion in RG2 glioma was examined at three different periods by changing the time of [^14 C]-dextran injection relative to intracarotid infusion of bradykinin with or without zaprinast.
The frozen brains were mounted onto pedestals with M-1 embedding matrix (Lipshaw, Pittsburgh, Pa.) and 20 μm coronal sections were cut with a cryotome. The sections were thawmounted onto cover slips and autoradiograms were generated by co-exposing the sections on Kodak XAR-5 film with tissue calibrated [^14 C]-standards (Amersham, Arlington Heights, Ill.) for 2 weeks. The sequential section was stained with hematoxylin for the correlation of areas of histologically verified tumor areas with autoradiograms. The regional radioactivity was measured in the tumor, BST (areas within 2 mm distance from the border of the tumor), right cortex (ipsilateral cortex), left cortex (contralateral cortex), right white matter, left white matter, right basal ganglia, and left basal ganglia. Quantitative analysis of the regional radioactivity was performed using a computer (Power Macintosh 7100) and the software, Image 1.55 (NIH).
For quantitative autoradiographic examination, the regional permeability in the brain and tumor tissues were expressed by the unidirectional transfer constant, Ki value (μl/g/minute) which was determined as described in References 21, 22, 23 and 24). […]

[1] = rat, in vivo
Description: as §2

[2] = Solubility of zaprinast in saline; format: physicochemical
Description: The bradykinin/bradykinin analog and zaprinast are preferably infused in the form of a pharmaceutical solution having a […] phosphate buffered saline solution as the carrier. The concentration of bradykinin in the solution is 10-40 μg/ml with the preferred concentration of zaprinast being on the order of 1 to 10 mg/ml for carotid artery administration. For intravenous administration, the concentration of bradykinin/bradykinin analog is preferably between about 15 μg/ml to 50 mg/ml with the preferred concentration of zaprinast being on the order of 2 mg/ml to 15 mg/ml. Zaprinast is not soluble directly in saline. Accordingly, it is preferred that the pharmaceutical solution be prepared by dissolving zaprinast in 1 M sodium hydroxide to form a concentrated solution of approximately 100 to 500 mg/ml zaprinast. This concentrated solution is then dissolved into phosphate buffered saline (PBS) to the final desired concentration. Bradykinin or the bradykinin analog is then added to the solution to form the final pharmaceutical preparation. The relative concentrations within the pharmaceutical preparation are adjusted as set forth above to provide a solution which is suitable for either carotid artery infusion or intravenous administration.

SMILES | permeability in brain tumor capillaries vs normal brain capillaries (in words) (brain tumor capillaries) | transport (Ki) for either tracer in non-tumor regions (in words) (C6 gliomas; C6-bearing rats, [14C]-dextran and [14C]-AIB) | Ki in tumors for [14C]-dextran, fold higher than in controls (C6 gliomas; C6 tumor, bradykinin intracarotid vs PBS control) | transport (Ki) of either tracer in other normal brain / non-tumor regions (in words) (RG2 gliomas; RG2-bearing rats, [14C]-dextran and [14C]-AIB) | Ki for AIB in BST (brain within 2 mm of the tumor) (RG2 gliomas; RG2, brain surrounding tumor, intracarotid infusion 15 minutes) | Ki for dextran in BST (in words) (RG2 gliomas; RG2, brain surrounding tumor, vs control) | effect on tumor permeability 20 minutes after stopping the intracarotid infusion (in words) (RG2 gliomas; RG2 tumor, time course study) | Ki in tumors for [14C]-dextran, fold higher than in controls (RG2 gliomas; RG2 tumor, bradykinin 10 μg/kg/minute intracarotid vs PBS control) | Ki in tumors for [14C]-AIB (MW 103) (RG2 gliomas; RG2 tumor, intracarotid infusion 15 minutes (bradykinin 10 μg/kg/minute, zaprinast 1.67 mg/kg/minute), mean±SD) | transfer constant, Ki, in tumors for [14C]-dextran (MW 70,000) (RG2 gliomas; RG2 tumor, intracarotid infusion 15 minutes (bradykinin 10 μg/kg/minute, zaprinast 1.67 mg/kg/minute), tracer i.v. 5 minutes after start, mean±SD) | [14C]-dextran uptake into the tumor (Ki) 10 minutes after stopping the intracarotid infusion (RG2 gliomas; RG2 tumor, time course study) | blood gas parameters or hemoglobin concentration (in words) [1] | Ki in tumors for [14C]-AIB (C6 gliomas; C6 tumor, intracarotid infusion 15 minutes (bradykinin 10 μg/kg/minute, zaprinast 1.67 mg/kg/minute)) | Ki values in C6 tumors for [14C]-dextran, increase with zaprinast alone (in words) (C6 gliomas; C6 tumor, zaprinast alone, intracarotid) | solubility in saline (in words) [2] | bradykinin effect on tumor permeability (Ki) at 10 minutes after infusion (in words) (RG2 gliomas; RG2 tumor, FIG. 5 time course) | Ki values in RG2 tumors for both tracers (in words) (RG2 gliomas; zaprinast alone, intracarotid, [14C]-dextran and [14C]-AIB)
CCCCC/C=C\C\C=C/C=C/C=C/[C@@H](SC[C@H](NC(=O)CC[C@H](N)C(=O)O)C(=O)NCC(=O)O)[C@@H](O)CCCC(=O)O [LTC4, leukotriene C4] | selectively increases |  |  |  |  |  |  |  |  |  |  |  |  |  |  |  | 
NC(N)=NCCC[C@H](NC(=O)[C@H](Cc1ccccc1)NC(=O)[C@@H]1CCCN1C(=O)[C@H](CO)NC(=O)[C@H](Cc1ccccc1)NC(=O)CNC(=O)[C@@H]1CCCN1C(=O)[C@@H]1CCCN1C(=O)[C@@H](N)CCCN=C(N)N)C(=O)O [bradykinin] (H-RPPGFSPFR-OH) |  | did not increase | 3.1 fold | did not increase | 5.31 ± 1.50 µL/g/min | not significantly increased | diminished | 8.4 fold | 26.46 ± 2.64 µL/g/min | 14.33 ± 2.96 µL/g/min | 3.89 ± 0.74 µL/g/min |  |  |  |  |  | 
CCCOc1ccccc1-c1nc2nn[nH]c2c(=O)[nH]1 [zaprinast, 2-(2-propyloxyphenyl)-8-azapurin-6-one] |  |  |  |  |  |  | negligible |  |  |  |  | did not change | 31.4 µL/g/min | not | not soluble | significantly prolonged | did not increase
